Source: patent publication US5741476A, “Polyhydric phenol compounds” (Mallinckrodt Medical, Inc., priority 1992, dated 1998)
Where two headings read alike, the source gives them in different places. Each block holds one molecule with its values, some of them ahead of it.

Experiments:
YAK1 mice lymphoma cells = experiment: binding of 3-125I-phloretin to YAK1 lymphoma cells
Experimental: (§1) In order to be able to compare the binding to cancer cells with the binding to normal cells, the following experiments are carried out. Binding to certain cancer cells, viz. YAK1 mice lymphoma cells (10^6 cells/ml incubation medium) is compared with binding to erythrocytes of a young healthy person (10^6 cells/ml incubation medium), because erythocytes are typical reference cells for glucose transport studies.
(§2) The incubation media are respectively:
(§3) RPMI-buffer pH=8; 11 mM in glucose, and
(§4) RPMI buffer/0.9% NaCl: 1/1.
(§5) Each 1 ml essay contains 5% of foetal calf serum and is spiked (50 μl) with 3-^125 I-phloretin (initial activity is measured).
(§6) After 15 min incubation at 37° C., the suspension is centrifuged and the precipitate is resuspended with 1 ml cold buffer which is discarded after a second centrifugation. The final radioactive precipitate is suspended in 1 ml water and measured. The bound radioactivity is related to the initial activity.

erythrocytes = experiment: binding of 3-125I-phloretin to erythrocytes; parameters: species or system human
Experimental: as §1, §2, §3, §4, §5, §6
Saturation binding of 3-^125 I-phloretin to 5.10^6 erythrocytes is performed in RPMI-buffer and Tris-buffer of pH 8. The binding experiments are performed at pH 8, because this is the pH of the RPMI buffer needed for optimum YAK1 cells growth. Incubation for 15 min at 37° C. Inhibition is studied by pre-incubation (15 min, 37° C.) of the erythrocytes in buffer containing 2.10^-4 M 3-Br-phloretin. After centrifugation, the Br-phloretin-containing solution is discarded and the precipitate washed with ice-cooled buffer. After a second centrifugation, the supernatant is discarded and the cells are resuspended in buffer containing 3^125 I-phloretin. After incubation for 15 min at 37° C., the same above procedure is applied. Phloretin is a weak acid (pK is approx. 7.3); only the uncharged (non-dissociated) form inhibits red cell glucose transport (Jennings et al., see above). Therefore the values mentioned hereinafter are corrected for dissociation.
When starting from small amounts (0.1×10^-10 M) N.C.A. 3-^125 I-phloretin up to higher concentrations and C.A. conditions (3-Br-phloretin used as analogue), two types of binding are observed: […]

[1] = binding in human whole blood (RB/plasma distribution, reversibility); type: in vitro ADME; conditions: for blood plasma ratio at 0.25 h / blood plasma ratio: human; for blood plasma ratio at 0.25 h: 37° C., 15 min, read-out: RB/plasma ratio after re-equilibration
Experimental: In vitro experiments: binding in human whole blood
Jennings et al. [J. Gen. Phys., 1967, 67, 381] have reported the binding of phloretin to whole red blood cells. Their results let to assume that phloretin should enter the erythrocytes and bind to haemoglobine. This should mean that a phloretin-based radiotracer should not be suitable for in vivo use. Therefore the reversibility of the binding is checked. For this purpose 3-^123 I-phloretin is added to whole heparinised blood. This is centrifuged, yielding serum S-*I and red blood portion RB-*I. S-*I and non-radioactive RB (1/1) and respectively non-radioactive S and RB-*I (1/1) are incubated at 37° C. for 15 min and centrifuged. The radioactivity of all the weighed aliquots is measured in a well NaI(T1) detector.

hexokinase = experiment: hexokinase-model: inhibition of hexokinase-catalysed 6-phosphorilation of glucose; type: biochemical
Excerpt: In vitro evaluation of 3-halo-phloretin compounds using the "hexokinase-model"
The "hexokinase-model" is used as a model system for the glucose-transport proteins, which play a paramount role in the glucose metabolism.
The mechanism of the glucose--glucosetransportprotein interaction and following transport through the cell membrane of glucose, as described in literature (Scientific American, January 1992, p. 32-39; Biochemistry, Vol. 28, No. 20, 1989, p. 8221-8227), and the induced-fit model described for glucose 6-phosphorilation by hexokinase (Cell Biology, 1989) show a certain analogy which let to assume, that the interaction between a potential glucose transport inhibitor with hexokinase can be a valuable in vitro model if this inhibition is competitive for glucose.
The substitution of halogen such as a bromine or iodine atom on the 3-position of the 4-hydroxyl-phenylpropion part of phloretin increases the inhibition potency as shown as follows:
Inhibition of hexokinase catalyses 6-phosphorilation of glucose by deoxyglucose, phloretin and 3-bromo-phloretin.

[2] = in vivo distribution in rats
Experimental: The in vivo distribution in rats is determined by injecting approx. 10 μCi of the compound to be evaluated into the tail vein of the test animals. The test animals are sacrificed at appropriate time intervals after injection and the radioactivity of the organs of interest is measured by gamma scintillation counting.

[3] = weak acid; cited from earlier work

bound/free value of 3-125I-phloretin (erythrocytes; erythrocytes pre-incubated with 2×10^-4 M 3-Br-phloretin, blank 0.193, average of 5 experiments): 0.081
inhibition of 3-125I-phloretin binding (erythrocytes; pre-incubation with 2×10^-4 M 3-Br-phloretin, compared with blank): 58%
Compound: O=C(CCc1ccc(O)c(Br)c1)c1c(O)cc(O)cc1O [3-Br--phloretin, 3-bromophloretin]
decreased binding of 3-125I-phloretin (YAK1 mice lymphoma cells; co-incubation of 3-Br-phloretin, YAK1 cells, 15 min): 30%

reversibility of binding to plasma-proteins and RB [1]: bound reversibly
blood plasma ratio at 0.25 h ([1]; N.C.A. radioactivity bound to RB, re-equilibrated with non-radioactive plasma): 0.15
blood plasma ratio at 0.25 h ([1]; N.C.A. radioactivity bound to plasma, re-equilibrated with non-radioactive RB): 0.13
blood plasma ratio ([1]; in the presence of non-radioactive Br-phloretin or phloretin): 0.32
blood plasma ratio ([1]; non-carrier-added (N.C.A.) conditions): 0.215
bound/free ratio (erythrocytes; N.C.A., 10^6 erythrocytes, 15 min 37° C., average of at least 20 experiments): 0.021
influence of glucose on binding (erythrocytes; presence of 3.10^-2 -5.10^-3 M glucose): hardly influences the binding
Bmax (erythrocytes; saturation binding 0.1 to 1.2 10^-10 M, Scatchard plot, pH 8): 4.7×10^-15 mol/10^6 erythrocytee
Kd (erythrocytes; saturation binding 0.1 to 1.2 10^-10 M, Scatchard plot, pH 8, 15 min 37° C., corrected for dissociation, read-out: apparent Kd): 0.08 nM
Compound: O=C(CCc1ccc(O)c([125I])c1)c1c(O)cc(O)cc1O [3-^125 I-phloretin]
bound/free ratio (YAK1 mice lymphoma cells; N.C.A., 10^6 YAK1 cells, 15 min 37° C., average of at least 20 experiments): 0.048
increase of uptake in YAK1 lymphoma cancer cells as compared to erythrocytes (YAK1 mice lymphoma cells; YAK1 versus erythrocytes): > 2 factor

potency as hexokinase inhibitor relative to the original phloretin (hexokinase; versus phloretin): approx. 2 times
Compound: O=C(CCc1ccc(O)c(I)c1)c1c(O)cc(O)cc1O [3-I--phloretin, 3-I-phloretin]

saturability of uptake in heart and muscle ([2]; decreased uptake in the presence of Br-phloretin): apparently saturable
uptake in the lungs (L/B) ([2]; i.v. tail vein, N.C.A. and C.A.): high uptake in the lungs
Compound: O=C(CCc1ccc(O)c(I)c1)c1c(O)cc(O)cc1O [3-*I-phloretin]

type of inhibition of hexokinase activity (hexokinase; Lineweaver-Burck plots, versus glucose): competitive
Compound: O=C(CCc1ccc(O)cc1)c1c(O)cc(O)cc1O [phloretin, reference compound]
pK [3]: approx. 7.3
